The subject of this assay is MDA-MB-435 cytotoxicity with apoptosis inducers, ATPlite, 24 h. In words: PubChem AID 1774. The following applies: stronger effect = higher value.

Calls of active or inactive are those of the source. No rule for the calls is given here.

With `CSc1nc(-c2ccc(C)cc2)nc(C(Cl)Cl)n1`, the cytotoxicity was -11% (inactive) (at 5 µM); -19% (compound alone 2.5 uM, at 2.5 µM); 30% (plus doxorubicin 50 ug/mL, at 5 µM); 75% (plus doxorubicin 100 ug/mL, at 5 µM); 18% (plus etoposide 50 uM, at 5 µM); 14% (plus etoposide 100 uM, at 5 µM). Moreover, the cytotoxicity is 17% (plus thapsigargin 3 uM, at 5 µM); -7% (plus thapsigargin 10 uM, at 5 µM); 10% (plus tunicamycin 10 ug/mL, at 5 µM); 16% (plus tunicamycin 30 ug/mL, at 5 µM).
